This is an account of results in US20240350458A1, “14-3-3 PROTEIN MODULATORS AS ANTITUMOR AGENTS” (priority 2021, published 2024).

The subject of one experiment is FARAGE. The experiment is described as follows: MTT proliferation assay, B-cell lymphoma cell line. Particulars: 72 h of drug incubation. It counts as cell-based. The protocol:
(§1) All the above compounds were tested in vitro for their anticancer activity against a panel of eight B-cell lymphoma cell lines by MTT proliferation assay. The tested cell lines belonging to mantle cell lymphoma (MCL: REC1, Z138), activated B-cell diffuse large B-cell lymphoma (ABC-DLBCL: R11, HBL1, U2932, TMD8), germinal center B-cell diffuse large B-cell lymphoma (GCB-DLBCL: SU-DHL-10, FARAGE) subtypes. In overall, MCL cell lines present Cyclin D1 overexpression, while ABC- and GCB-DLBCL's proliferation is BCR and BCL6/HDACs driven, respectively. At the RNA level, all tested lymphoma cell lines were characterized by an overexpression of 14-3-3 zeta as reported for B-cell lymphomas resistant to chemotherapeutic regimen.
(Tetrazolium assays rely on reduction of a dye to a coloured formazan, in cell work by metabolically active cells.)

The test system of another experiment is HBL1. Nature of the experiment: MTT proliferation assay, B-cell lymphoma cell line. The experiment is classed as cell-based. The conditions noted are these: HBL1, 72 h of drug incubation. The protocol:
as §1

The next experiment concerns REC1. The experiment is described as follows: MTT proliferation assay, B-cell lymphoma cell line. The experiment is classed as cell-based. The conditions noted are these: Homo sapiens; REC1, 72 h of drug incubation. Here is the method: as §1
A further experiment relates to RI1. Nature of the experiment: MTT proliferation assay, B-cell lymphoma cell line. The conditions noted are these: Ri-1; RI1, 72 h of drug incubation. It counts as cell-based. The protocol:
as §1

For the next experiment, the system named is SUDHL10. Nature of the experiment: MTT proliferation assay, B-cell lymphoma cell line. The experiment is classed as cell-based. Particulars: Homo sapiens, SU-DHL10; SUDHL10, 72 h of drug incubation. Here is the method:
as §1

The next experiment has as its system TMD8. The experiment is described as follows: MTT proliferation assay, B-cell lymphoma cell line. It counts as cell-based. Particulars: Homo sapiens; TMD8, 72 h of drug incubation. Here is the method: as §1
Another experiment concerns U2932. The experiment is described as follows: MTT proliferation assay, B-cell lymphoma cell line. The experiment is classed as cell-based. The conditions noted are these: Homo sapiens; U2932, 72 h of drug incubation. The protocol:
as §1

A further experiment deals with Z138. Nature of the experiment: MTT proliferation assay, B-cell lymphoma cell line. It counts as cell-based. Particulars: Homo sapiens, Z-138; Z138, 72 h of drug incubation. The protocol:
as §1

In experiment [1] the test system is eight B-cell lymphoma cell lines. Nature of the experiment: MTT proliferation assay, panel of eight B-cell lymphoma cell lines. The conditions noted are these: B-cell; read-out: IC50 in all eight lymphoma cell lines. The experiment is classed as cell-based. The protocol: as §1
For a further experiment, the system named is 8505c. Nature of the experiment: MTT assay, ATC cell line, fixed concentrations. The conditions noted are these: Homo sapiens, 48 h, read-out: % of proliferating cells. The experiment is classed as cell-based. Here is the method: (§2) The compounds FC91, SB14, SB17, SB18, SB19, SB20, SB21 and FC85 were employed in a cellular screening at fixed concentration ranging from 20 nM to 20 μM.
(§3) Table 2: Four human thyroid cancer cell lines were incubated with FC91, SB14, SB17, SB18, SB19, SB20A, SB20b, SB21 and FC85 for 48 h at fixed concentration of 20,100 and 20000 nM and then assayed with MTT. Data are reported as % of proliferating cells.

For another experiment, the system named is FRO. Nature of the experiment: MTT assay, ATC cell line, fixed concentrations. The experiment is classed as cell-based. Particulars: Homo sapiens, 48 h, read-out: % of proliferating cells. Here is the method: as §2, §3
The next experiment concerns Nthory. The experiment is described as follows: MTT assay, ATC cell line, fixed concentrations. It counts as cell-based. Particulars: Homo sapiens, 48 h, read-out: % of proliferating cells. Here is the method: as §2, §3
For another experiment, the system named is SW1736. Nature of the experiment: MTT assay, ATC cell line, fixed concentrations. The experiment is classed as cell-based. The conditions noted are these: Homo sapiens, SW-1736, 48 h, read-out: % of proliferating cells. The protocol: as §2, §3
For experiment [2], the system named is four human ATC cell lines. The experiment is described as follows: Cellular screening in four human ATC cell lines. The experiment is classed as cell-based. Particulars: Homo sapiens; in one (i.e. SB17) to four (i.e. SB20b) cell lines of anaplastic thyroid cancer; read-out: IC50 value in ATC cell lines.
For another experiment, the system named is glioblastoma cell. The conditions noted are these: combined with temozolomide; cited from earlier work.

Bounds are passed on as bounds.

As usually defined, the IC50 is the point on the concentration scale where inhibition reaches its midpoint. Take `Cc1ccc(S(=O)(=O)Nc2ccc3c(c2)/C(=C/c2cnc[nH]2)C(=O)N3)cc1` [FC85, N-[(3Z)-3-(1H-imidazol-5-ylmethylidene)-2-oxo-2,3-dihydro-1H-indol-5-yl]-4-methylbenzenesulfonamide]: the 50% inhibitory concentration (IC50) with FARAGE came out at 500 nM; in the experiment on HBL1 it was 600 nM; in the experiment on REC1 it was 1000 nM; in the experiment on RI1 it was 500 nM; in the experiment with SUDHL10, 600 nM; in the experiment on TMD8 it was 600 nM. Also, the half-inhibitory concentration (IC50) with U2932 was 500 nM; in the experiment with Z138 it was 500 nM; in experiment [1], < 1000 nM; in [2], 100 to 20000 nM. Further, the viability at 0.02 µM in the experiment with 8505c (20 nM) was 80%; in the experiment on FRO (20 nM), 75%; with Nthory (20 nM) it was 78%; in the experiment with SW1736 (SW1736, 20 nM), 90%. Moreover, the viability at 0.1 µM in the experiment with 8505c (100 nM) amounted to 99%; with FRO (100 nM), 98%; in the experiment with Nthory (100 nM), 83%; with SW1736 (SW1736, 100 nM) it was 67%. Also, the viability at 20 µM in the experiment with 8505c (20000 nM) worked out at 36%; with FRO (20000 nM), 42%; in the experiment on Nthory (20000 nM), 38%; with SW1736 (SW1736, 20000 nM), 56%. In the experiment on glioblastoma cell, the “inhibition of glioblastoma cell viability, combination vs single treatment” value was “significant increase in inhibition”.
